Results on 18 molecules are retold here after US9809553B2, “Isoquinoline compounds, a process for their preparation, and pharmaceutical compositions containing them” (LES LABORATOIRES SERVIER, priority 2014, dated 2017).

Counter-ions that a name gives are not always drawn. Like-named read-outs stand apart in the source and are kept apart here.

Assay [1] relates to aortic segments of the rat (contraction induced by PHE). The experiment in a line: Functional test (rat aorta): vascular reactivity on aortic rings without endothelium contracted with phenylephrine. As to conditions: aortic rings without endothelium contracted with PHE 10^-6 M, read-out: Relaxation (rat aorta + PHE), IC50. From the text:
Functional Test (Rat Aorta) Study of Vascular Reactivity on Aortic Segments of the Rat. After anaesthesia of the animal, the thoracic aorta is removed and immediately placed in a physiological saline solution (PSS). The proximal thoracic aorta is cleaned of adherent conjunctive tissue and 4 aortic rings (3-4 mm) are cut. The endothelium is removed mechanically without damaging the smooth muscle cells. The rings without endothelium are placed in PSS medium in isolated organ baths maintained at 37° C. in the presence of carbogen. The isometric tension of the rings is recorded by means of a force sensor. At their optimum tension, the rings are subjected to an equilibration period during which the physiological medium is replaced regularly. The preparations are then contracted twice by means of a hyperpotassic solution (KCl 60 mM), each of the 2 contractions being followed by successive washings in order to return to the original tension. The absence of endothelium is verified after contraction by an al-adrenergic receptor agonist, phenylephrine (PHE, 10^−6M), followed by the addition of carbachol (10^−5M), a muscarinic receptor agonist, which induces a relaxation only in the presence of endothelium. The rings are then washed regularly with PSS for 60 minutes in order to remove the pharmacological agents. The rings are recontracted with PHE (10^−6M) and then, after stabilisation of the contraction, the product or its solvent is added in cumulative concentrations, 5 concentrations are tested: 10M^−8, 10^−7M, 10^−6M, 10M^−5 and 3×10^−5M (if the product is dissolved in DMSO) or 10^−4M (if H2O is the solvent of the product). The contractile response is obtained in milligrams (mg). The results are expressed by the mean±SEM of the contractile responses obtained on at least 2 rats. The variations in tension of each product are calculated as a percentage of the maximum contraction induced by PHE before the product is added, according to the formula: % contraction B(t)=[×(mg) tension(compound)B(t)/y (mg) maximum tension (PHE)B]×100. The concentration-response curves obtained are analysed and allow the IC50 value of each product to be determined (IC50: concentration of product necessary to inhibit 50% of the maximum contraction induced by PHE), the estimation of the IC50 value of the concentration-response curves being obtained by non-linear regression.

The test system of assay [2] is arterial pressure of spontaneously hypertensive rats (SHR). In words: Evaluation on the arterial pressure in spontaneously hypertensive rats (SHR), telemetry. The format is in vivo. The settings on record: SHR rat, maximum change of arterial pressure relative to basal. The procedure:
The effect of the ROCK inhibitors was tested by the reduction of the arterial pressure (AP) that they induce in spontaneously hypertensive rats (SHR) after intravenous (i.v.) and/or oral administration. In summary, the SHRs were anaesthetised with 2% isoflurane, and a telemetry probe (PAC40, Data Science International) was implanted in the abdominal aorta to record the AP and a polyethylene catheter was implanted in the jugular vein for the i.v. administration. After recovery from the surgery (2 to 3 weeks), the AP was recorded continuously for 24 hours after administration of the ROCK inhibitors at doses of 1, 3, 10 and 30 mg/kg by the i.v. route and/or by the oral route. The effect on the AP was expressed as the percentage reduction relative to the basal arterial pressure before administration of the product.

In a further assay the target is human ROCK1 (Homo sapiens, UniProt Q13464). In words: ROCK1 enzymatic test (LANCE, phosphorylation of Ulight-RRRSLLE (PLK) substrate). As to conditions: human recombinant enzyme, 1 μM ATP, 50 nM Ulight-RRRSLLE (PLK) substrate, 30 minutes at ambient temperature; read-out: ROCK1(h), IC50. The format is biochemical. The procedure: Evaluation of the effects of compounds on human ROCK1 activity quantified by measuring the phosphorylation of the substrate Ulight-RRRSLLE (PLK) using a human recombinant enzyme and the LANCE® detection method.
The test compound, the reference compound or water (control) is mixed with the enzyme (8.2 ng) in a buffer comprising 40 mM Hepes/Tris (pH 7.4), 0.8 mM EGTA/Tris, 8 mM MgCl2, 1.6 mM DTT and 0.008% Tween 20.
The reaction is then started by adding 50 nM of Ulight-RRRSLLE (PLK) substrate and 1 μM of ATP, and the mixture is incubated for 30 minutes at ambient temperature. For the basal control measurements, the enzyme is excluded from the reaction mixture.
After the incubation, the reaction is stopped by adding 13 mM of EDTA. After 5 minutes, the anti-phospho-PLK antibody labelled with europium chelate is added. After a further 60 minutes, the fluorescence transfer is measured at lex=337 nm, lem=620 nm and lem=665 nm using a microplate reader (Envision, Perkin Elmer). The enzymatic activity is determined by dividing the signal measured at 665 nm by that measured at 620 nm (ratio). The results are expressed in the form of a percentage inhibition of the control enzymatic activity. The standard reference inhibition compound is staurosporine, which is tested in each experiment at several concentrations in order to obtain an inhibition curve on the basis of which the value of the IC50 (concentration that induces 50% inhibition) is calculated.
Background: TR-FRET usually uses a lanthanide donor and a delayed reading to cut background.

Where [3] appears, read: IV 3 mg/kg, read-out: SHR rat ΔAP % max, IV 3 mg/kg.
The mark [4] stands for this setting: PO 3 mg/kg, read-out: SHR rat ΔAP % max, PO 3 mg/kg.

human ROCK1, sequence (Q13464 whole entry): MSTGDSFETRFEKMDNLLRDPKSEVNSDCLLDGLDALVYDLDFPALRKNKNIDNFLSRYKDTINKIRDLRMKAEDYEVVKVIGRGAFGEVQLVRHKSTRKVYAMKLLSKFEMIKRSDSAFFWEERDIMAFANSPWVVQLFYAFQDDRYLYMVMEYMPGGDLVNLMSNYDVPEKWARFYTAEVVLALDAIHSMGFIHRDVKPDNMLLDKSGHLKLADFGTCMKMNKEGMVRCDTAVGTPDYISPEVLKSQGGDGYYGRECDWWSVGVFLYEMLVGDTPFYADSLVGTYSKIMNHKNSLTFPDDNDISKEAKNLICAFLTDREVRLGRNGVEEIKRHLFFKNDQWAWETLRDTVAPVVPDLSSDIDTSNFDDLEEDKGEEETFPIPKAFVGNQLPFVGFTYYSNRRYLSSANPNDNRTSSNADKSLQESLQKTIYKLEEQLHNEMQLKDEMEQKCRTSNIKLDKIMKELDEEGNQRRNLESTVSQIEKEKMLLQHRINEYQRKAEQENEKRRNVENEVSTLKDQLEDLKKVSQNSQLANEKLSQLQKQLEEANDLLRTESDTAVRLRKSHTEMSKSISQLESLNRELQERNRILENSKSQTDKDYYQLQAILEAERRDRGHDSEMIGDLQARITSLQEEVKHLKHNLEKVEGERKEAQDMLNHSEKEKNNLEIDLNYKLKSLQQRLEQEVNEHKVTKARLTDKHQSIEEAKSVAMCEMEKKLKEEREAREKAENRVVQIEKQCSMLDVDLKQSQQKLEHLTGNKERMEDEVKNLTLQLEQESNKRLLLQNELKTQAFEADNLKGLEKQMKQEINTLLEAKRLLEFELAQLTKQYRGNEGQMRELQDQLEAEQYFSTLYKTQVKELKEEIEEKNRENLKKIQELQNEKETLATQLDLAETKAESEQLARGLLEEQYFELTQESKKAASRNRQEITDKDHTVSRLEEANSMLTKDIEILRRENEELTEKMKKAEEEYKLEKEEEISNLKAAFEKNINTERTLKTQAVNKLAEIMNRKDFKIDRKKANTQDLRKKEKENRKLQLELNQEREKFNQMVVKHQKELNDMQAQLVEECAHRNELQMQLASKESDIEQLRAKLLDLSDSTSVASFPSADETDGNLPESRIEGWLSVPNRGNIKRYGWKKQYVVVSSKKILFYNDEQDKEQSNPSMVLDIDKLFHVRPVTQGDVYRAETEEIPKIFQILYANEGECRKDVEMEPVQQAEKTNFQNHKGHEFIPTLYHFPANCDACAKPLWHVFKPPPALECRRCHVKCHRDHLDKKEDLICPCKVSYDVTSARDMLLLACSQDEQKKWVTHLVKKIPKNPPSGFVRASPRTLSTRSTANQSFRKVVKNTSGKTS

Broadly, the IC50 is the concentration that inhibits the measured activity by half. With `C[C@H](N)c1cc(F)c(C(O)c2cccc3cnccc23)c(F)c1` (single isomer, unassigned; enantiomer 1) [Product P21], the IC50 in assay [1] is 1000 nM.
Consider `CC(N)c1cc(F)c(C(=O)c2cccc3cnccc23)c(F)c1` (centres unmarked) [Product P6, [4-(1-Aminoethyl)-2,6-difluorophenyl](isoquinolin-5-yl)methanone dihydrochloride], for which the IC50 in assay [1] is 200 nM. For the same molecule, the values for the change in vivo at 3 mg/kg in assay [2] (setting [3]) and in assay [2] (setting [4]) were -73.4% and -35.6%, respectively.
For `C[C@@H](N)c1cc(F)c(C(=O)c2cccc3cnccc23)c(F)c1` [Product P9, {4-[(1R)-1-Aminoethyl]-2,6-difluorophenyl}(isoquinolin-5-yl)methanone dihydrochloride], the half-maximal inhibitory concentration (IC50) on human ROCK1 was 5.87 nM; in assay [1] it was 33 nM. Also, the change in vivo at 3 mg/kg in assay [2] (setting [3]) is -67%; in assay [2] (setting [4]) it was -53.7%.
Consider `CC(N)c1cc(F)c(C(=O)c2cccc3c(O)nccc23)c(F)c1` (centres unmarked) [Product P17, [4-(1-Aminoethyl)-2,6-difluorophenyl](1-hydroxyisoquinolin-5-yl)methanone hydrochloride], for which the figures for the IC50 (on human ROCK1; in assay [1]) were 4.2 nM and 14 nM, respectively. Besides, the change in vivo at 3 mg/kg in assay [2] (setting [3]) was -72.8%; in assay [2] (setting [4]) it was -56.6%.
For `CC(N)c1cc(F)c(Cc2cccc3cnccc23)c(F)c1` (centres unmarked) [Product P19, 1-[3,5-Difluoro-4-(isoquinolin-5-ylmethyl)phenyl]ethanamine dihydrochloride], the half-inhibitory concentration (IC50) on human ROCK1 turned out to be 63 nM; in assay [1] it was 230 nM. The change in vivo at 3 mg/kg in assay [2] (setting [3]) is -39.6%.
With `CC(C)(N)c1cc(F)c(C(=O)c2cccc3cnccc23)c(F)c1` [Product P24, [4-(2-Aminopropan-2-yl)-2,6-difluorophenyl](isoquinolin-5-yl)methanone dihydrochloride], the figures for the IC50 (on human ROCK1; in assay [1]) were 23 nM and 10 nM, respectively. For the same molecule, the change in vivo at 3 mg/kg in assay [2] (setting [3]) is -68.2%; in assay [2] (setting [4]) it was -52.5%.
For `CC(C)(N)c1cc(F)c(C(=O)c2cccc3c(=O)[nH]ccc23)c(F)c1` [Product P27, 5-[4-(2-Aminopropan-2-yl)-2,6-difluorobenzoyl]isoquinolin-1(2H)-one hydrochloride], the IC50 is 8.7 nM on human ROCK1 and 50 nM in assay [1]. Moreover, the change in vivo at 3 mg/kg was -69% in assay [2] (setting [3]) and -54% in assay [2] (setting [4]).
On the same counts, the results for `COc1c(C(C)N)ccc(C(=O)c2cccc3c(=O)[nH]ccc23)c1F` (centres unmarked) [Product P42, 5-[4-(1-Aminoethyl)-2-fluoro-3-methoxybenzoyl]isoquinolin-1(2H)-one hydrochloride] are 9.6 nM, 200 nM, -59.9% and -12.3%.
For `C[C@@H](N)c1ccc(C(=O)c2cccc3c(=O)[nH]ccc23)c2c1CCCO2` [Product P45, 5-({5-[(1R)-1-Aminoethyl]-3,4-dihydro-2H-chromen-8-yl}carbonyl)isoquinolin-1(2H)-one hydrochloride] the same measures were 5 nM, 100 nM, -60.6% and -24%.
On the same counts, the results for `Cc1cc([C@@H](C)N)ccc1C(=O)c1cccc2c(=O)[nH]ccc12` [Product P47, 5-{4-[(1R)-1-Aminoethyl]-2-methylbenzoyl}isoquinolin-1(2H)-one hydrochloride] are 6.78 nM, 40 nM, -62.7% and -26.4%.
With `CC(NCCO)c1cc(F)c(C(=O)c2cccc3c(=O)[nH]ccc23)c(F)c1` (centres unmarked) [Product P48, 5-(2,6-Difluoro-4-{1-[(2-hydroxyethyl)amino]ethyl}benzoyl)isoquinolin-1(2H)-one hydrochloride], the 50% inhibitory concentration (IC50) on human ROCK1 was found to be 7.45 nM; in assay [1], 150 nM. For the same molecule, the change in vivo at 3 mg/kg is -67.3% in assay [2] (setting [3]) and -29.2% in assay [2] (setting [4]).
On the same counts, the results for `Cc1c[nH]c(=O)c2cccc(C(=O)c3c(F)cc([C@@H](C)N)cc3F)c12` [Product P50, 5-{4-[(1R)-1-Aminoethyl]-2,6-difluorobenzoyl}-4-methylisoquinolin-1(2H)-one hydrochloride] are 5.4 nM, 100 nM, -58% and -16.8%.
Take `C[C@@H](N)c1ccc(F)c(C(=O)c2cccc3c(=O)[nH]ccc23)c1F` [Product P56, 5-{3-[(1R)-1-Aminoethyl]-2,6-difluorobenzoyl}isoquinolin-1(2H)-one hydrochloride]: the IC50 was 16.5 nM on human ROCK1 and 150 nM in assay [1]. Besides, in assay [2] (setting [3]), the change in vivo at 3 mg/kg is -54.7%.
Take `NC1CCc2c1cc(F)c(C(=O)c1cccc3c(=O)[nH]ccc13)c2F` (centres unmarked) [Product P58, 5-[(1-Amino-4,6-difluoro-2,3-dihydro-1H-inden-5-yl)carbonyl]isoquinolin-1(2H)-one hydrochloride]: the IC50 was 3.85 nM at human ROCK1 and 70 nM in assay [1]. For the same molecule, the change in vivo at 3 mg/kg in assay [2] (setting [3]) is -65.1%; in assay [2] (setting [4]), -52.7%.
For `N[C@@H]1CCc2cc(F)c(C(=O)c3cccc4c(=O)[nH]ccc34)c(F)c21` [Product P59, 5-{[(3R)-3-Amino-4,6-difluoro-2,3-dihydro-1H-inden-5-yl]carbonyl}isoquinolin-1(2H)-one hydrochloride], the IC50 on human ROCK1 was 1.95 nM; in assay [1], 550 nM. The change in vivo at 3 mg/kg in assay [2] (setting [3]) was -40.3%.
For `C[C@@H](N)c1ccc(C(=O)c2cccc3c(=O)[nH]ccc23)c2c1OCCO2` [Product P61, 5-({8-[(1R)-1-Aminoethyl]-2,3-dihydro-1,4-benzodioxin-5-yl}carbonyl)isoquinolin-1(2H)-one hydrochloride] the same measures were 5.35 nM, 170 nM and -59%.
On to `O=C(c1c(F)cc(C2CCCCN2)cc1F)c1cccc2c(=O)[nH]ccc12` (centres unmarked) [Product P75, 5-[2,6-Difluoro-4-(piperidin-2-yl)benzoyl]isoquinolin-1(2H)-one hydrochloride], for which the IC50 on human ROCK1 was 10.4 nM; in assay [1] it was 200 nM. Further, the change in vivo at 3 mg/kg in assay [2] (setting [3]) was -49.8%; in assay [2] (setting [4]), -12.4%.
`NCC1CCOc2c(C(=O)c3cccc4c(=O)[nH]ccc34)cccc21` (centres unmarked) [Product P139, 5-{[4-(Aminomethyl)-3,4-dihydro-2H-chromen-8-yl]carbonyl}isoquinolin-1(2H)-one hydrochloride]: the IC50 on human ROCK1 turned out to be 87.5 nM; in assay [1] it was 2000 nM.
